Reference: US12227509B2, “Dihydropyrazolopyrazinone derivative having MGAT2 inhibitory activity” (Shionogi & Co., Ltd., priority 2019, dated 2025)
In brackets after ≈: the same amount, converted by molar mass.

Columns and labels:
[1] = Metabolism stability test (human liver microsomes); assay type: in vitro ADME; settings: compound concentration 0.5 μmol/L, 37° C., 30 minutes, NADPH
Procedure: Using commercially available pooled human hepatic microsomes, the compound of the present invention was reacted for a constant time, a remaining rate was calculated by comparing a reacted sample and an unreacted sample, thereby, a degree of metabolism of the compound of the present invention in liver was assessed.
A reaction was performed (oxidative reaction) at 37° C. for 0 minute or 30 minutes in the presence of 1 mmol/L NADPH in 0.2 mL of a buffer (50 mmol/L Tris-HCl pH 7.4, 150 mmol/L potassium chloride, 10 mmol/L magnesium chloride) containing 0.5 mg protein/mL of human liver microsomes. After the reaction, 50 μL of the reaction solution was added to 100 μL of a methanol/acetonitrile=1/1 (v/v) solution, mixed and centrifuged at 3000 rpm for 15 minutes. The compound of the present invention in the supernatant was quantified by LC/MS/MS, and a remaining amount of the compound of the present invention after the reaction was calculated, letting a compound amount at 0 minute reaction time to be 100%.

[2] = Solubility test (1% DMSO addition, pH 6.8 artificial intestinal juice); assay type: physicochemical; settings: kinetic from dmso stock, 16 hours at 25° C.
Procedure: The solubility of the compound of the present invention was determined under 1% DMSO addition conditions. 10 mmol/L solution of the compound was prepared with DMSO, and 6 μL of the solution of the compound of the present invention was added to 594 μL of pH 6.8 artificial intestinal juice (118 mL of 0.2 mol/L NaOH test solution and water were added to 250 mL of 0.2 mol/L potassium dihydrogen phosphate test solution to reach 1000 mL). The mixture was left standing for 16 hours at 25° C., and the mixture was vacuum-filtered. The filtrate was two-fold diluted with methanol/water=1/1 (V/V), and the compound concentration in the filtrate was measured with HPLC or LC/MS/MS by the absolute calibration method. The dilution concentration and the dilution solvent were changed as necessary.

[3] = molecular target: CYP1A2 (Homo sapiens (Human), UniProt P05177); test: CYP inhibition test, CYP1A2; assay type: in vitro ADME; settings: pooled human liver microsomes; 7-ethoxyresorufin O-deethylation; given as 'five kinds'
CYP1A2, sequence (P05177 whole entry): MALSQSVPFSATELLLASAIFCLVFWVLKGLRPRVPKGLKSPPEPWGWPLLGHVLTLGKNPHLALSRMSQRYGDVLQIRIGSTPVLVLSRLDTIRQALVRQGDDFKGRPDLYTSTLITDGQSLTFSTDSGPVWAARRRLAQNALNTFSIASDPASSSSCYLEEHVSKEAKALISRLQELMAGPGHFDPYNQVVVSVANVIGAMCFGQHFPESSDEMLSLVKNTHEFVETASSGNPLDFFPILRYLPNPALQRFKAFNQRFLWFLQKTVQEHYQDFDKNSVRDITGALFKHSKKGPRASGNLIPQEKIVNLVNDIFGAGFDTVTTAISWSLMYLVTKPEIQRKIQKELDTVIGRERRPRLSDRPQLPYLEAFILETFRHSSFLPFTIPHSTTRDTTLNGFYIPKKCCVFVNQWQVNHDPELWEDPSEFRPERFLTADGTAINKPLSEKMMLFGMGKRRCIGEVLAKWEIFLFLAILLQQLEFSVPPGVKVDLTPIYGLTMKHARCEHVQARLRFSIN
Excerpt: (§1) Using commercially available pooled human hepatic microsome, and employing, as markers, 7-ethoxyresorufin O-deethylation (CYP1A2), tolbutamide methyl-hydroxylation (CYP2C9), mephenytoin 4'-hydroxylation (CYP2C19), dextromethorphan 0-demethylation (CYP2D6), and terfenadine hydroxylation (CYP3A4) as typical substrate metabolism reactions of human main five CYP enzyme forms (CYP1A2, 2C9, 2C19, 2D6, 3A4), an inhibitory degree of each metabolite production amount by the compound of the present invention was assessed. The reaction conditions are as follows: substrate, 0.5 μmol/L ethoxyresorufin (CYP1A2), 100 μmol/L tolbutamide (CYP2C9), 50 μmol/L S-mephenitoin (CYP2C19), 5 μmol/L dextromethorphan (CYP2D6), 1 μmol/L terfenedine (CYP3A4); reaction time, 15 minutes; reaction temperature, 37° C.; enzyme, pooled human liver microsomes 0.2 mg protein/mL; concentrations of the compound of the present invention, 1, 5, 10, 20 μmol/L (four points). As a reaction solution, each five kinds of substrates, human liver microsomes, or compound of the present invention in 50 mmol/L Hepes buffer were added to a 96-well plate at the composition as described above, and NADPH, as a cofactor was added to initiate metabolism reactions. After the incubation at 37° C. for 15 minutes, a methanol/acetonitrile=1/[…]) solution was added to stop the reaction. After the centrifugation at 3000 rpm for 15 minutes, resorufin (CYP1A2 metabolite) in the supernatant was quantified by a fluorescent multilabel counter or LC/MS/MS, and tolbutamide hydroxide (CYP2C9 metabolite), mephenytoin 4' hydroxide (CYP2C19 metabolite), dextrorphan (CYP2D6 metabolite), and terfenadine alcohol (CYP3A4 metabolite) were quantified by LC/MS/MS. Addition of only DMSO being a solvent dissolving a drug to a reaction system was adopted as a control (100%). Remaining activity (%) was calculated. IC50 was calculated by reverse presumption by a logistic model using the concentration and an inhibition rate.

[4] = molecular target: CYP2C9 (Homo sapiens (Human), UniProt P11712); test: CYP inhibition test, CYP2C9; assay type: in vitro ADME; settings: pooled human liver microsomes; tolbutamide methyl-hydroxylation; given as 'five kinds'
CYP2C9, sequence (P11712 whole entry): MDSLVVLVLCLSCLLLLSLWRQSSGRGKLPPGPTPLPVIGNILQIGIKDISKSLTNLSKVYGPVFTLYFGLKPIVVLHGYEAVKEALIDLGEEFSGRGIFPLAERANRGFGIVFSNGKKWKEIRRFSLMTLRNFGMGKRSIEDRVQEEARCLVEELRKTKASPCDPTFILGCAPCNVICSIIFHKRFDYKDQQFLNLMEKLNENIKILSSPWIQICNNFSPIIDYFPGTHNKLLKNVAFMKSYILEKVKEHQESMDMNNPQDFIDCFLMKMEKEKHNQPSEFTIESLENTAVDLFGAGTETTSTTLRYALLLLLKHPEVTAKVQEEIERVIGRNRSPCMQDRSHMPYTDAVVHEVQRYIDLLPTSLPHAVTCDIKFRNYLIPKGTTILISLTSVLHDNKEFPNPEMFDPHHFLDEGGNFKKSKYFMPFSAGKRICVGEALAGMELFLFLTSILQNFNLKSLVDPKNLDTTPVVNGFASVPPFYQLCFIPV
Excerpt: as §1

[5] = molecular target: CYP2C19 (Homo sapiens (Human), UniProt P33261); test: CYP inhibition test, CYP2C19; assay type: in vitro ADME; settings: pooled human liver microsomes; mephenytoin 4′-hydroxylation; given as 'five kinds'
CYP2C19, sequence (P33261 whole entry): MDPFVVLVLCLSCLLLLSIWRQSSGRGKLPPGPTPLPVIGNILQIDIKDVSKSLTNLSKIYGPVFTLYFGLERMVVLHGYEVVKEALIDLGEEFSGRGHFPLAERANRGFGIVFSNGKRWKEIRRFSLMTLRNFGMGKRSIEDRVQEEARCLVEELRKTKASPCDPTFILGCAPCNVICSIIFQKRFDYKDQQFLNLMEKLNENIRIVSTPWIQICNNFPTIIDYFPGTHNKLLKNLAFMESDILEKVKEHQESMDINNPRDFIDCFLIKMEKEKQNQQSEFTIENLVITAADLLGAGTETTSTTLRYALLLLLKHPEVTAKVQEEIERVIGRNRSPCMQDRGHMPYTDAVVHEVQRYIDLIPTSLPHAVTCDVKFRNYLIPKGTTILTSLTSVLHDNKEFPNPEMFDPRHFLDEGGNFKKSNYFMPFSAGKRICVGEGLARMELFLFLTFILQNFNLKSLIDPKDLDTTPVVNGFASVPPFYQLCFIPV
Excerpt: as §1

[6] = molecular target: CYP2D6 (Homo sapiens (Human), UniProt P10635); test: CYP inhibition test, CYP2D6; assay type: in vitro ADME; settings: pooled human liver microsomes; dextromethorphan O-demethylation; given as 'five kinds'
CYP2D6, sequence (P10635 whole entry): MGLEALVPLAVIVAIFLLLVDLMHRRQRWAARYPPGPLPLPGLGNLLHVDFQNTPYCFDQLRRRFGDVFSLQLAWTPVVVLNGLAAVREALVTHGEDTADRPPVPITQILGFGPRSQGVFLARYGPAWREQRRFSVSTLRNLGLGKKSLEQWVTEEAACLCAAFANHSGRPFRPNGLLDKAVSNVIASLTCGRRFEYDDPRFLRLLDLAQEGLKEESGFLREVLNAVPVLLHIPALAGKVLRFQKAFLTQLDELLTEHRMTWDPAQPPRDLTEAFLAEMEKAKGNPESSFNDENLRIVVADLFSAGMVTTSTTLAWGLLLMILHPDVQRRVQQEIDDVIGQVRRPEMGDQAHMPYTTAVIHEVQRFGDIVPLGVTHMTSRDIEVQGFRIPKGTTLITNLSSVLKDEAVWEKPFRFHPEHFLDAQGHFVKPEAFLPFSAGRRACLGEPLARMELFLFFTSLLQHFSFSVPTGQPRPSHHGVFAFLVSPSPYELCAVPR
Excerpt: as §1

[7] = molecular target: CYP3A4 (Homo sapiens (Human), UniProt P08684); test: CYP inhibition test, CYP3A4; assay type: in vitro ADME; settings: pooled human liver microsomes; terfenadine hydroxylation; given as 'five kinds'
CYP3A4, sequence (P08684 whole entry): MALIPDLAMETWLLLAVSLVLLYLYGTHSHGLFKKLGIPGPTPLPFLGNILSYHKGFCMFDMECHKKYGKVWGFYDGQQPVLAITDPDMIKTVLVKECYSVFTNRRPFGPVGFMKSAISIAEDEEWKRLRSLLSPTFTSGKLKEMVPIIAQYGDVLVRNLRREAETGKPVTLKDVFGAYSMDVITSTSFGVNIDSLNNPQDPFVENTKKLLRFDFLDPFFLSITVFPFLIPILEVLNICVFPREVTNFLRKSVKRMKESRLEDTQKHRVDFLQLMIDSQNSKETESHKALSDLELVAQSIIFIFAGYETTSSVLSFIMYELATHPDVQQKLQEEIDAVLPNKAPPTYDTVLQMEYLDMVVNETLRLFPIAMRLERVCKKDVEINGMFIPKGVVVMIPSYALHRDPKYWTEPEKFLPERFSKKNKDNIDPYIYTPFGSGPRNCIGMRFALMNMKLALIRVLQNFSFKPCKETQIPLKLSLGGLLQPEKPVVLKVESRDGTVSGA
Excerpt: as §1

[8] = BA test (oral absorption); assay type: in vivo; settings: plasma; mice or SD rats; from AUCs of oral and intravenous administration
Procedure: Materials and methods for experiments to evaluate oral absorption
(1) Animals: the mice or SD rats were used.
(2) Breeding conditions: the mice or SD rats were allowed to freely take solid food and sterilized tap water.
(3) Setting of dosage and grouping: Oral administration and intravenous administration were performed with a predetermined dosage. Grouping was set as below. (dosage changed per compound)
Oral administration: 1 to 30 mg/kg (n=2 to 3)
Intravenous administration: 0.5 to 10 mg/kg (n=2 to 3)
(4) Preparation of administration solution: Oral administration was performed in the form of a suspension or a solution. Intravenous administration was performed after solubilization.
(5) Routes of administration: Oral administration was performed mandatory into the stomach by oral sonde. Intravenous administration was performed from caudal vein or femoral vein by syringes with needle.
(6) Evaluation items: blood was collected over time, and the plasma concentration of the compound of the present invention was measured by LC/MS/MS.
(7) Statistical analysis: regarding the transition of the plasma concentration of the compound of the present invention, the area under the plasma concentration-time curve (AUC) was calculated by non-linear least squares program WinNonlin (registered trademark), and the bioavailability (BA) of the compound of the present invention was calculated from the AUCs of the oral administration group and intravenous administration group.

[9] = molecular target: hERG (IKr) (Homo sapiens (Human), UniProt Q12809); test: hERG test; assay type: cell-based; settings: CHO cells expressing hERG channel, pH 7.4, 10 μmol/L of test compound, read-out: % inhibition of hERG tail peak current (IKr)
hERG (IKr), sequence (Q12809 whole entry): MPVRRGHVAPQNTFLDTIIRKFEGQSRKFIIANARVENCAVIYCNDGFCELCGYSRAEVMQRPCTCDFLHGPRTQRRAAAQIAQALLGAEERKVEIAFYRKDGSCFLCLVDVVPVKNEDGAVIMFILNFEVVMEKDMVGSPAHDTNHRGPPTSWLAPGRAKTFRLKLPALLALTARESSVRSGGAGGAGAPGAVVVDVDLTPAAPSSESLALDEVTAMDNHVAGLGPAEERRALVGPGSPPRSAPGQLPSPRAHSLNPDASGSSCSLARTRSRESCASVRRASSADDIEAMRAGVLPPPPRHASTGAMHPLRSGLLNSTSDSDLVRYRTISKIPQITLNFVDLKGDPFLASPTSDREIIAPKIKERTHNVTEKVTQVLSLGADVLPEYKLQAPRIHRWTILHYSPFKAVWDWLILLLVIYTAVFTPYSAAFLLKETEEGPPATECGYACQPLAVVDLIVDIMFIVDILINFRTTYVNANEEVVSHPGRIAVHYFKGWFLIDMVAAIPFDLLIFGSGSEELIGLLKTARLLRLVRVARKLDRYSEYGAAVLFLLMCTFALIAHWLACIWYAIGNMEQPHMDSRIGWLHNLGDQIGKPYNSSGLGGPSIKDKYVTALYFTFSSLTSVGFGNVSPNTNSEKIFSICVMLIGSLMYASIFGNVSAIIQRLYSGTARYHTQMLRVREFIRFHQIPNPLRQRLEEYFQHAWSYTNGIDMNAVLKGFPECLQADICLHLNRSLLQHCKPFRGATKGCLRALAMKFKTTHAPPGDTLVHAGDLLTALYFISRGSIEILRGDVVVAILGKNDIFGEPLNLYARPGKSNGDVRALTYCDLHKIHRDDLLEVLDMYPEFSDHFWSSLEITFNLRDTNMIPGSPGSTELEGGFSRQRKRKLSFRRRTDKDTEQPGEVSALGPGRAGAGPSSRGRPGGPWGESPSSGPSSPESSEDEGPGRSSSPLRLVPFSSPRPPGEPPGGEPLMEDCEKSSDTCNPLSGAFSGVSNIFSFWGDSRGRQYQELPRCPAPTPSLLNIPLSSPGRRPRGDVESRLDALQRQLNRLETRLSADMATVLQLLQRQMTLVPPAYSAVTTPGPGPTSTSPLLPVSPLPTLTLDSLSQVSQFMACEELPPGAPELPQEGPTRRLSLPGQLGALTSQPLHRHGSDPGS
Excerpt: For the purpose of assessing risk of an electrocardiogram QT interval prolongation of the compound of the present invention, effects of the compound of the present invention on delayed rectifier K^+ current (IKr), which plays an important role in the ventricular repolarization process, was studied using CHO cells expressing human ether-a-go-go related gene (hERG) channel.
After a cell was retained at a membrane potential of −80 mV by whole cell patch clamp method using an automated patch clamp system (QPatch; Sophion BIoscience A/S), IKr induced by application of a leak potential of −50 mV followed by depolarization pulse stimulation at +20 mV for 2 seconds and, further, repolarization pulse stimulation at −50 mV for 2 seconds, was recorded. […] From the recording IKr, an absolute value of the tail peak current was measured based on the current value at the resting membrane potential using analysis software (Falster Patch; Sophion Bioscience A/S). Further, the % inhibition of tail peak current for the compound of the present invention relative to the tail peak current after application of the vehicle is calculated to assess influence of the compound of the present invention on IKr.

[10] = molecular target: recombinant human MGAT2 (Homo sapiens (Human), UniProt Q3SYC2); test: Measurement of human MGAT2 inhibitory activity; assay type: biochemical; settings: concentration exhibiting 50% enzyme inhibition; recombinant human MGAT2, 2-Oleoylglycerol/Oleoyl-CoA
recombinant human MGAT2, sequence (Q3SYC2 whole entry): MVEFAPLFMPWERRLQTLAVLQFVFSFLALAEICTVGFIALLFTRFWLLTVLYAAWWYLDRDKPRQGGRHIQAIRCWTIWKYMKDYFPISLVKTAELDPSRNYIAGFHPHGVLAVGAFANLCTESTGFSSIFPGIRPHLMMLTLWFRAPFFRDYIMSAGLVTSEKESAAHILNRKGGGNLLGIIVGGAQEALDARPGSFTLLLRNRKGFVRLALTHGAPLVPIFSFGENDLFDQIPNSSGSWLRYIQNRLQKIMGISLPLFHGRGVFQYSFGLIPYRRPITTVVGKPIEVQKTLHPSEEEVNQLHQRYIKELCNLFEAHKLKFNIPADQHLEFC
Method in brief: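 Membrane fraction of baculovirus-infected Sf-9 cells expressing N-terminally Flag-tagged full-length human MGAT2, in 100 mmol/L phosphate pH 7.4 with 2 mmol/L DTT. The substrate solution held 30 μmol/L 2-oleoylglycerol and 10 μmol/L oleoyl-CoA. After 1 h at room temperature, diolein/diolein-d5 ratio was read by ESI Q-TOF MS and % inhibition derived against enzyme and no-enzyme controls.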

[11] = Solution stability test; assay type: physicochemical; settings: 18 hr
Procedure: The compound of the present invention (0.4 mg) was weighed into a 4 mL screw vial, and 2 mL of various media pH=1 (0.1 N HClaq.+30% MeCN), pH=7 (pH 7 phosphate Buffer (100 mM+30% MeCN) or pH=9 (pH 9 carbonate Buffer (100 mM+30% MeCN) was added, respectively. Complete dissolution was confirmed. If not dissolved, filtration was performed with a 0.45 μm filter. The solution or filtrate was placed in an HPLC vial. HPLC sample cooler was set at 40° C., and sequence was set so that sampling was performed by HPLC at 0, 3, 6, 9, 12, 15, and 18 hours. Stability over time was evaluated by setting the area value of 0 hr product to 100%.

Row | Compound | Remaining rate [1] | solubility at 16 h [2] | IC50 [3] | IC50 [4] | IC50 [5] | IC50 [6] | IC50 [7] | bioavailability [8] | inhibition at 10 min, 10 μmol/L [9] | IC50 [10] | Residual rate ([11]; pH=1, 40° C.) | Residual rate ([11]; pH=7, 40° C.) | Residual rate ([11]; pH=9, 40° C.)
1 | CS(=O)(=O)CC(=O)Nc1c(-c2ccc(C3CC3)cn2)nn2c1C(=O)N[C@@]1(CCc3cc(F)cc(F)c31)C2 [Compound I-141] | 99.4% | 48.9 µM (≈ 25.8 µg/mL) | > 20 µM | > 20 µM | > 20 µM | > 20 µM | > 20 µM | 67% | 14% |  |  |  | 
2 | CS(=O)(=O)CC(=O)Nc1c(-c2ccc(C#N)cn2)nn2c1C(=O)N[C@@]1(CCc3cc(OCC(F)(F)F)ccc31)C2 [Compound I-3] |  |  |  |  |  |  |  |  |  | 0.00199 µM | 100.2% | 100.9% | 100.2%
